Assay results as given in patent US20250154144A1 (CHILDREN'S HOSPITAL MEDICAL CENTER, priority 2021, published 2025).
pIC50, pKd: −log10 of the molar value. Read-outs that look alike come from different tables or passages of the source.

Experiments:
[1] = biological target: T1, IRAK4 (Homo sapiens, UniProt Q9NWZ3); test: RBC HotSpot Kinase Assay, IRAK4; conditions: IRAK4 IC50
T1 sequence (Q9NWZ3 1-460): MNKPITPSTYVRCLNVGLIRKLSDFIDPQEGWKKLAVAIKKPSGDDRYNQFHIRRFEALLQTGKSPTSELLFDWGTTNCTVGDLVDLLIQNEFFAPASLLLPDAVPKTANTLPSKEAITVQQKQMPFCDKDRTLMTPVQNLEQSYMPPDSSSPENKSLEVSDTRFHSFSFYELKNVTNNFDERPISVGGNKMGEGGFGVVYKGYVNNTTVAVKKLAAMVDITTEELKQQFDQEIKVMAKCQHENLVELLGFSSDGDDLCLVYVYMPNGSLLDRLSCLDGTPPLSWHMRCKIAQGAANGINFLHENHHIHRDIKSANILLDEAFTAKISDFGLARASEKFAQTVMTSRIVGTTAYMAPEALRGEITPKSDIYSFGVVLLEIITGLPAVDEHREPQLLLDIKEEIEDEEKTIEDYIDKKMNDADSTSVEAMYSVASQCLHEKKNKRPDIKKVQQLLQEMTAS

[2] = biological target: T2, IRAK1 (Homo sapiens, UniProt P51617); test: RBC HotSpot Kinase Assay, IRAK1; conditions: IRAK1 IC50
T2 sequence (P51617 whole entry): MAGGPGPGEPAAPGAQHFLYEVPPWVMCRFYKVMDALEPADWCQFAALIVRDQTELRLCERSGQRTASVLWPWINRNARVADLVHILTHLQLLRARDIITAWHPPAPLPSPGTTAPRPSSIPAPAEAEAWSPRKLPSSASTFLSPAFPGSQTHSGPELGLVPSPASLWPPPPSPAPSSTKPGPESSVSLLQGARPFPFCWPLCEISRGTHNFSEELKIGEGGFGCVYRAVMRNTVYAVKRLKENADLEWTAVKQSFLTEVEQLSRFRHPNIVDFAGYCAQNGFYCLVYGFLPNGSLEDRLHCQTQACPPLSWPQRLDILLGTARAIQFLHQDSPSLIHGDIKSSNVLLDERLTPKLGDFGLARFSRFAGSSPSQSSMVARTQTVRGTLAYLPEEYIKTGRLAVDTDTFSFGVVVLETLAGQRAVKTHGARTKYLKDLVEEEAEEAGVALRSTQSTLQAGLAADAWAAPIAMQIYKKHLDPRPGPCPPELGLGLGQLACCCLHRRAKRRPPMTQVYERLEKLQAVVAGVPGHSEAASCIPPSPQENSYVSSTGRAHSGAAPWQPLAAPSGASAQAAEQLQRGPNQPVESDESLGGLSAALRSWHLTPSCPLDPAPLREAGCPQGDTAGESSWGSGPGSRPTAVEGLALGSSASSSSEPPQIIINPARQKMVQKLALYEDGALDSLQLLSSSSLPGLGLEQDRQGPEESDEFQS

[3] = test system: MOLM14 D835Y cells; test: cells; format: cell-based; conditions: Homo sapiens, MOLM-14, 48 h, 48 hours, Cell Titer Glo; read-out: MOLM14 D835Y IC50
[4] = test system: MOLM14 F691L cells; test: cells; format: cell-based; conditions: Homo sapiens, MOLM-14, 48 h, 48 hours, Cell Titer Glo; read-out: MOLM14 F691L IC50
[5] = biological target: T3, FLT3 (Homo sapiens, UniProt P36888); test: Reaction Biology NanoBRET target engagement assay in HEK-293 cells, FLT3; conditions: NanoBRET FLT3 IC50, HEK-293 cells
T3 sequence (P36888 27-993): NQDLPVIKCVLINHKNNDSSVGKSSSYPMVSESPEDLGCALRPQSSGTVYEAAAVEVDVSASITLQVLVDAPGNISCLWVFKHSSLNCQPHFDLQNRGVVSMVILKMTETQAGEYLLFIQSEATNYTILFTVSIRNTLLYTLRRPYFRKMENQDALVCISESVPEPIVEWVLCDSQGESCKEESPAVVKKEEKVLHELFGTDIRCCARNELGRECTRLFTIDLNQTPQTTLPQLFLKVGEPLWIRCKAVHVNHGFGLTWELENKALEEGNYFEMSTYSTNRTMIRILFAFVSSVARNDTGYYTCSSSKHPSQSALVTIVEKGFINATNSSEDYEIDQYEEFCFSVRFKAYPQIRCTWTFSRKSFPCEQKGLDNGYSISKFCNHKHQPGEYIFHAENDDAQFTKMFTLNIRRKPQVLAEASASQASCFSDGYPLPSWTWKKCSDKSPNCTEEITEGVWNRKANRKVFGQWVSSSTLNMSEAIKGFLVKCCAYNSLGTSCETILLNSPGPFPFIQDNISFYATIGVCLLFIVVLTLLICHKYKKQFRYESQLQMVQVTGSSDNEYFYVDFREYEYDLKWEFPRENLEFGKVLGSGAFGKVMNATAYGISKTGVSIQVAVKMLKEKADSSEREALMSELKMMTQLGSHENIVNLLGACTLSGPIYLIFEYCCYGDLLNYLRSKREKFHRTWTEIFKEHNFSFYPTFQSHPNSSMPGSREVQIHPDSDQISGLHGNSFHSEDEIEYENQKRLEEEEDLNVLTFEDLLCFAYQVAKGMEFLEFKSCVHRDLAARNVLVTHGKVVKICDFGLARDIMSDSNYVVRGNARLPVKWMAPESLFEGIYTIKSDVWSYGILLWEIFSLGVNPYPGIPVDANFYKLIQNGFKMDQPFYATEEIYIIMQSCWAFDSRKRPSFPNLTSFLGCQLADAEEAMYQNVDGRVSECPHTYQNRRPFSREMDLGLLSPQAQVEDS

[6] = biological target: T1, IRAK4; test: Reaction Biology NanoBRET target engagement assay in HEK-293 cells, IRAK4; conditions: NanoBRET IRAK4 IC50, HEK-293 cells
[7] = biological target: T4, FLT3 (Homo sapiens, UniProt P36888); test: RBC HotSpot Kinase Assay, FLT3; conditions: FLT3 IC50
T4 sequence (P36888 610-943 limits assumed): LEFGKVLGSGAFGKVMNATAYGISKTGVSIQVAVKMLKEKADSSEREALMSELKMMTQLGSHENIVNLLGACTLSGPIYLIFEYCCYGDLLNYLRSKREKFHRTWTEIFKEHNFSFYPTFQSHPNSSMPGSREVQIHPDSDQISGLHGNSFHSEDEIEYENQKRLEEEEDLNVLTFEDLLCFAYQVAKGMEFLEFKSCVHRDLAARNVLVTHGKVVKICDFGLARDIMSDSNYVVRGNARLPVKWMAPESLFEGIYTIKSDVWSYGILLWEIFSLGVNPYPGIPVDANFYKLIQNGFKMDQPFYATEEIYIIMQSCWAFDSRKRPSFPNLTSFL

[8] = test system: MOLM14(D835Y) cells; format: cell-based; conditions: MOLM14(D835Y) cells; for Excess HSA Score: 10 × 10
[9] = test system: THP1 cells; test: Combination drug screening, Cell Titer Glo, 10 × 10 matrix, THP1 cells; format: cell-based; conditions: THP1 cells; for Excess HSA Score: 10 × 10
[10] = biological target: T2, IRAK1; test: DiscoverX KINOMEscan competition binding, IRAK1; parameters: purchased RBC (Reaction Biology) HotSpot assay
[11] = biological target: T1, IRAK4; test: DiscoverX KINOMEscan competition binding, IRAK4; parameters: purchased RBC (Reaction Biology) HotSpot assay
[12] = combination with (+)-BAY-1251152
[13] = combination with Eprenetapopt/APR-246
[14] = combination with Venetoclax (ABT-199)

Row | SMILES | pIC50 [1] | pIC50 [2] | pIC50 [3] | pIC50 [4] | pIC50 [5] | pIC50 [6] | pIC50 [7] | Excess HSA Score [8, 12] | Excess HSA Score ([8]; combination with AMG-232) | Excess HSA Score ([8]; combination with AZD-5363) | Excess HSA Score [8, 13] | Excess HSA Score ([8]; combination with Ivosidenib) | Excess HSA Score ([8]; combination with Lenalidomide) | Excess HSA Score ([8]; combination with Palbociclib) | Excess HSA Score ([8]; combination with Prednisolone) | Excess HSA Score ([8]; combination with SNDX-5613) | Excess HSA Score ([8]; combination with TNO-155) | Excess HSA Score ([8]; combination with Trametinib) | Excess HSA Score ([8]; combination with Ulixertinib) | Excess HSA Score [8, 14] | other results
1 | CC(C)Oc1ccn2c(-c3ccnc(N[C@H]4CNC[C@@H]4F)n3)cnc2c1 [Compound 25, N-((3S,4S)-4-fluoropyrrolidin-3-yl)-4-(7-isopropoxyimidazo[1,2-a]pyridin-3-yl)pyrimidin-2-amine] | 8.52 | 7.62 | 7.28 | 6.22 | 7.47 | > 9.30 | 9.10 |  |  |  |  |  |  |  |  |  |  |  |  |  | 
2 | CC(C)Oc1ccn2c(-c3ccnc(N[C@@H]4CCCNC4)n3)cnc2c1 [Compound 26, (R)-4-(7-isopropoxyimidazo[1,2-a]pyridin-3-yl)-N-(piperidin-3-yl)pyrimidin-2-amine] | 8.70 | 7.28 | 7.72 | 6.77 | 8.70 | > 9.30 | > 9.30 |  |  |  |  |  |  |  |  |  |  |  |  |  | 
3 | F[C@H]1CCNC[C@@H]1Nc1nccc(-c2cnc3cc(OC4CC4)ccn23)n1 [Compound 39, 4-(7-cyclopropoxyimidazo [1,2-a]pyridin-3-yl)-N-((3S,4S)-4-fluoropiperidin-3-yl)pyrimidin-2-amine] | 8.70 | 7.96 | 7.62 | 6.76 | 7.82 | 9.10 | > 9.30 |  |  |  |  |  |  |  |  |  |  |  |  |  | 

Now those with a higher pIC50 [1], led by results:

Row | pIC50 [1] | pIC50 [2] | pIC50 [3] | pIC50 [4] | pIC50 [5] | pIC50 [6] | pIC50 [7] | SMILES | Excess HSA Score [8, 12] | Excess HSA Score ([8]; combination with AMG-232) | Excess HSA Score ([8]; combination with AZD-5363) | Excess HSA Score [8, 13] | Excess HSA Score ([8]; combination with Ivosidenib) | Excess HSA Score ([8]; combination with Lenalidomide) | Excess HSA Score ([8]; combination with Palbociclib) | Excess HSA Score ([8]; combination with Prednisolone) | Excess HSA Score ([8]; combination with SNDX-5613) | Excess HSA Score ([8]; combination with TNO-155) | Excess HSA Score ([8]; combination with Trametinib) | Excess HSA Score ([8]; combination with Ulixertinib) | Excess HSA Score [8, 14] | other results
4 | 9.10 | 8.22 | 7.72 | 6.51 | 7.19 | 9.15 | > 9.30 | COc1ccn2c(-c3ccnc(N[C@H]4CNC[C@@H]4F)n3)cnc2c1 [Compound 28, N-((3S,4S)-4-fluoropyrrolidin-3-yl)-4-(7-methoxyimidazo[1,2-a]pyridin-3-yl)pyrimidin-2-amine] | −477 | −628.3 | −377.1 | 330.3 | −92.39 | 340.1 | −207.7 | −600.8 | 49.85 | −593.8 | 115.3 | 57.98 | −1089 | Comments ([8]; combination with SNDX-5613): Antagonistic; Comments [8, 14]: Synergistic; Excess HSA Score [9, 12]: −347.5; Excess HSA Score ([9]; combination with AMG-232): 401.8; Excess HSA Score ([9]; combination with AZD-5363): −208.6; Excess HSA Score [9, 13]: −126.4; Excess HSA Score ([9]; combination with Ivosidenib): 313; Excess HSA Score ([9]; combination with Lenalidomide): 486.7; Excess HSA Score ([9]; combination with Palbociclib): −270.8; Excess HSA Score ([9]; combination with Prednisolone): 381.4; Excess HSA Score ([9]; combination with SNDX-5613): 492.2; Excess HSA Score ([9]; combination with TNO-155): 98.5766; Excess HSA Score ([9]; combination with Trametinib): −880.8; Excess HSA Score ([9]; combination with Ulixertinib): −60.25; Excess HSA Score [9, 14]: −1412; Comments ([9]; combination with TNO-155): Antagonistic; Comments [9, 14]: Synergistic
5 | > 9.30 | 9.15 | 7.96 | 7.16 |  |  |  | COc1cc2ncc(-c3ccnc(N[C@H]4CNC[C@@H]4F)n3)n2cc1C(C)(C)O [Compound 43, 2-(3-(2-(((3S,4S)-4-fluoropyrrolidin-3-yl)amino)pyrimidin-4-yl)-7-methoxyimidazo[1,2-a]pyridin-6-yl)propan-2-ol] |  |  |  |  |  |  |  |  |  |  |  |  |  | pKd [10]: 9.48; pKd [11]: 10.09
6 | 9.15 | 8.70 | 8.05 | 7.37 | 7.55 | > 9.30 | > 9.30 | COc1cc2ncc(-c3ccnc(N[C@H]4CNCC[C@@H]4F)n3)n2cc1C(C)(C)O [Compound 45, 2-(3-(2-(((3S,4S)-4-fluoropiperidin-3-yl)amino)pyrimidin-4-yl)-7-methoxyimidazo[1,2-a]pyridin-6-yl)propan-2-ol] | 117.1 | −212.5 | 384.6 | 477.7 | −76.48 | 515.9 | −172.2 | −357.5 | 58.42 | −372.6 | −362.6 | 288.2 | −803.3 | Comments ([8]; combination with SNDX-5613): Antagonistic; Comments [8, 14]: Synergistic; Excess HSA Score [9, 12]: −402.7072; Excess HSA Score ([9]; combination with AMG-232): 138.2; Excess HSA Score ([9]; combination with AZD-5363): −206.1; Excess HSA Score [9, 13]: 183; Excess HSA Score ([9]; combination with Ivosidenib): 93.15; Excess HSA Score ([9]; combination with Lenalidomide): 388.3; Excess HSA Score ([9]; combination with Palbociclib): −236; Excess HSA Score ([9]; combination with Prednisolone): 67.79; Excess HSA Score ([9]; combination with SNDX-5613): 169.6; Excess HSA Score ([9]; combination with TNO-155): −134.2061; Excess HSA Score ([9]; combination with Trametinib): −226.2; Excess HSA Score ([9]; combination with Ulixertinib): 218.0361; Excess HSA Score [9, 14]: −360.8; Comments [9, 12]: Synergistic; Comments ([9]; combination with Prednisolone): Antagonistic
